Legend:
[1] = tested on: iagA′-lacZ fusion (S. typhi strain Ty267); assay: β-galactosidase activity of the iagA′-lacZ fusion in favourable LB medium; type: cell-based; details: for β-Galactosidase activity of the iagA′-lacZ fusion (Table VII): fatty acid as sodium salt, control 22022 ± 1177; for β-Galactosidase activity of the iagA′-lacZ fusion (Table VII) / inhibition of the expression of the iagA′-lacZ fusion in S. typhi (in words) / β-galactosidase activity of the iagA′-lacZ fusion (Table II): 5 mM in favourable LB medium, 6 hours at 37° C.; for inhibition of the expression of the iagA′-lacZ fusion in S. typhi (in words): sodium salt; for β-galactosidase activity of the iagA′-lacZ fusion (Table II): control 12134 ± 1811
Procedure: (§1) The favourable LB medium (high osmolarity and concentration of Ca^2+ions) was defined as being the standard LB medium modified so as to have a final NaCl concentration of 300 mM and a final Ca concentration of 5 mM.
Each of the strains described above was cultured at 37° C. on agar or in TCS broth. The P-galactosidase activity was determined using 4-methyl-umbelliferyl-p-D-galactopyranoside sold by the company Sigma, according to the technique of Klarsfeld et al. (Mol. Mibrobiol., 1994, 13, 585-597). The results, expressed in P-galactosidase units (fluorescence per hour and per OD600), represent the mean of the values obtained in at least three independent experiments. The standard deviations were less than 10% of the values presented. […]
The β-galactosidase activity of the iagA′-lacZ fusion was measured after incubation for 6 hours at 37° C. with shaking (200 rpm).
The S. typhi Ty267 strain (iagA′-lacZ fusion) was seeded into favourable LB medium and into favourable LB medium containing the fatty acid to be tested, in the form of its sodium salt, at the final concentration of 5 mM.

[2] = tested on: Gram-positive or Gram-negative bacteria; details: in vitro, concentration not given; cited from earlier work
[3] = tested on: iagA′-lacZcat fusion in S. typhi strain Ty267; assay: "Biotype 100" plate screen for carbon-based substrates that repress the iagA′-lacZcat fusion (β-galactosidase activity); type: cell-based; details: "Biotype 100" cupule, amount of substrate not known; favourable LB medium; 36 hours at 37° C.; control cupule without substrate 11 250
Procedure: (§2) Each of the strains described above was cultured at 37° C. on agar or in TCS broth. The P-galactosidase activity was determined using 4-methyl-umbelliferyl-p-D-galactopyranoside sold by the company Sigma, according to the technique of Klarsfeld et al. (Mol. Mibrobiol., 1994, 13, 585-597). The results, expressed in P-galactosidase units (fluorescence per hour and per OD600), represent the mean of the values obtained in at least three independent experiments. The standard deviations were less than 10% of the values presented.
A “Biotype 100”® plate sold by the company BioMerieux is composed of 100 microcupules. Each micro-cupule contains a dehydrated carbon-based substrate, with the exception of the first cupule, which is a control without substrate (the amount of dehydrated substrate per cupule is not given by the manufacturer).
In the context of the present example, these plates were used to search for carbon-based compounds which would block the expression of the invasion genes in Salmonella.
For this, the S. typhi strain Ty267, which is a derivative of the parental strain Ty2 carrying the iagA′-lacZcat transcriptional fusion (Table I), was cultured in TCS broth for 18 hours at 37° C. with shaking (200 rpm).
This culture was then diluted 100-fold in favourable LB medium (0.6 ml of culture for 60 ml of favourable LB), and then this suspension was used immediately to seed the 100 cupules of a “Biotype 100”® plate, in a proportion of 450 μl of suspension per cupule.
After incubation for 36 hours in an incubator at 37° C., the activity of the iagA′-lacZcat fusion in the Ty267 strain was determined for the culture of each cupule.
By comparing the value of the P-galactosidase activity measured in a cupule containing a carbon-based substrate with that of the control cupule without substrate, it was possible to investigate whether a substrate had no effect on, activated or repressed the expression of the iagA′-lacZcat fusion.
The S. typhi strain Ty267 (iagA′-lacZ fusion), suspended in the favourable LB medium, was used to seed the “Biotype 100”® plates.
The β-galactosidase activity expressed by the iagA′-lacZ fusion was determined for the culture in each cupule. With respect to the β-galactosidase activity measured in the control cupule without substrate (11 250 β-galactosidase units), no substrate caused an increase in the expression of the iagA′-lacZ fusion.

Salmonellae = assay: Bactericidal or bacteriostatic effect on the Salmonellae at neutral pH; type: cell-based, Salmonella
[4] = tested on: Gram-positive or Gram-negative microorganisms; details: acid pH (free acid form); cited from earlier work
[5] = tested on: sipB′-lacZ fusion (S. typhi strain Ty277); assay: β-galactosidase activity of the sipB′-lacZ fusion in favourable LB medium; type: cell-based; details: LB medium with 300 mM NaCl and 1 mM EGTA (depleted of divalent cations) versus favourable LB medium
Procedure: as §1, §2
(§3) For this, the S. typhi strains Ty267, Ty272 and Ty277, which carry the iagA′-lacZ, invF′-lacZ and sipB′-lacZ fusions, respectively, (see Table I), were cultured in the favourable LB or unfavourable LB medium.
(§4) The action of these two compounds on the expression of the iagA′-lacZ, invF′-lacZ and sipB′-lacZ fusions was studied by measuring the β-galactosidase activity expressed by these fusions as a function of the time of culturing (samples removed every two hours).

[6] = tested on: invF′-lacZ fusion (S. typhi strain Ty272); assay: β-galactosidase activity of the invF′-lacZ fusion in favourable LB medium; type: cell-based; details: LB medium with 300 mM NaCl and 1 mM EGTA (depleted of divalent cations) versus favourable LB medium
Procedure: as §1, §2, §3, §4

| SMILES | β-Galactosidase activity of the iagA′-lacZ fusion (Table VII) [1] | inhibition of the expression of the iagA′-lacZ fusion in S. typhi (in words) [1] | further results |
| --- | --- | --- | --- |
| CC(=O)O [Acetic acid] | 29265 ± 1692 β-galactosidase units | do not make it possible to inhibit |  |
| CCCCCCC(O)C(=O)O (stereo not shown) [2-Hydroxycaprylic acid] | 225 ± 72 β-galactosidase units | does not modify the expression |  |
| CCCCC/C=C\C/C=C\CCCCCCCC(=O)O [linoleic acid] |  |  | bacteriostatic or bactericidal effect on Gram-positive or Gram-negative bacteria [2]: very effective |
| CCCCC(=O)O [Valeric acid] | 509 ± 91 β-galactosidase units | as strongly as sodium caprylate |  |
| O=C([O-])CCc1ccccc1.[Na+] [sodium 3-phenylpropionate] |  | inhibit | β-galactosidase activity of the iagA′-lacZ fusion (Table II) [1]: 297 ± 95 β-galactosidase units; β-galactosidase activity expressed by the iagA′-lacZ fusion in the cupule [3]: 166 β-galactosidase units; bactericidal or bacteriostatic effect on the Salmonellae (Salmonellae): none of these compounds has any significant bactericidal or bacteriostatic effect |
| CCC(=O)O [Propionic acid] | 14650 ± 1333 β-galactosidase units | do not make it possible to inhibit |  |
| CCCCCCCCC(=O)O [Pelargonic acid] | 383 ± 54 β-galactosidase units | as strongly as sodium caprylate |  |
| CCCCCC(=O)O [n-hexanoic acid] |  |  | bactericidal activity on a great variety of Gram-positive or Gram-negative microorganisms [4]: bactericidal activity |
| O=C([O-])Cc1ccccc1.[Na+] [sodium phenylacetate] |  | inhibit | β-galactosidase activity of the iagA′-lacZ fusion (Table II) [1]: 149 ± 24 β-galactosidase units; β-galactosidase activity expressed by the iagA′-lacZ fusion in the cupule [3]: 81 β-galactosidase units; bactericidal or bacteriostatic effect on the Salmonellae (Salmonellae): none of these compounds has any significant bactericidal or bacteriostatic effect |
| O=C([O-])CCCc1ccccc1.[Na+] [sodium 4-phenylbutyrate] |  | inhibited | β-galactosidase activity of the iagA′-lacZ fusion (Table II) [1]: 198 ± 32 β-galactosidase units; bactericidal or bacteriostatic effect on the Salmonellae (Salmonellae): none of these compounds has any significant bactericidal or bacteriostatic effect |
| NCCCCCCCC(=O)O [8-Aminocaprylic acid] | 18077 ± 1263 β-galactosidase units | totally blocks the inhibitory activity |  |
| CCCC(=O)O [Butyric acid] | 21225 ± 1741 β-galactosidase units | do not make it possible to inhibit |  |
| CCCCCCC(=O)O [Oenanthic acid] | 525 ± 43 β-galactosidase units | as strongly as sodium caprylate |  |
| O=C(O)CN(CCOCCOCCN(CC(=O)O)CC(=O)O)CC(=O)O [EGTA, ethylene glycol bis(β-aminoethyl ether) N,N,N′,N′-tetraacetic acid] |  |  | expression of the sipB′-lacZ fusion [5]: repression; expression of the iagA′-lacZ fusion ([1]; LB medium with 300 mM NaCl and 1 mM EGTA (depleted of divalent cations) versus favourable LB medium): repression; expression of the invF′-lacZ fusion [6]: repression |
| CCCCCCC(N)C(=O)O (stereo not shown) [2-Aminocaprylic acid] | 33149 ± 2520 β-galactosidase units | totally blocks the inhibitory activity |  |
| CCCCCCCC/C=C\CCCCCCCC(=O)O [oleic acid] |  |  | bacteriostatic or bactericidal effect on Gram-positive or Gram-negative bacteria [2]: very effective |
| O=C(O)CCCCCCCO [8-Hydroxycaprylic acid] | 593 ± 49 β-galactosidase units | does not modify the expression |  |
| CCCCCC(=O)O [Caproic acid] | 347 ± 21 β-galactosidase units | as strongly as sodium caprylate |  |
| CCCCCCCCCC(=O)O [decanoic acid] |  |  | bactericidal activity on a great variety of Gram-positive or Gram-negative microorganisms [4]: bactericidal activity |

From patent US20040116523A1, “Use of c4-c10 acids for preventing gram-negative bacterial infections” (priority 2000, published 2004)
